In ChEMBL document CHEMBL1126033, “C-terminal modifications of nonpeptide renin inhibitors: improved oral bioavailability via modification of physicochemical properties” (J Med Chem, 1992):

How the values were obtained:
Renin [1] = target: T1, Renin (Homo sapiens, UniProt P00797); format: cell-free, Plasma
T1 sequence (P00797 whole entry): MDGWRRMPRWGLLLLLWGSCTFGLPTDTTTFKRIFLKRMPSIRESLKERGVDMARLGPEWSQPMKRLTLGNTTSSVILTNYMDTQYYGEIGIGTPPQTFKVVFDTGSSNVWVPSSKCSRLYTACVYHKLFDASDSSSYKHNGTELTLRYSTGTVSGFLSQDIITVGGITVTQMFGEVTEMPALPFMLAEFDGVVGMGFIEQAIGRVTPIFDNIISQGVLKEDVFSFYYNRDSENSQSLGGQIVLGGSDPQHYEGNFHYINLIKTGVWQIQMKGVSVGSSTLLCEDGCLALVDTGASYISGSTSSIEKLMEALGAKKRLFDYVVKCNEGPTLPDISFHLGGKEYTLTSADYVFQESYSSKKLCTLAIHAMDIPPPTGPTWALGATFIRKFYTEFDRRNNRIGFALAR

Renin [2] = target: T1, Renin; test: In vitro activity against human renin (pH 6.0)
[3] = Partition coefficient (logD7.4); conditions: octanol/water, pH 7.4
[4] = Partition coefficient (logD6.5); conditions: octanol/water, pH 6.5
[5] = Average peak plasma drug concentration after id dose of 10 mg/kg in ferrets(Plasma samples collected from arterial blood).; conditions: ferret
Mustela putorius furo [6] = test: Average area under curve value dosed at 10 mg/kg, id in ferrets.; conditions: ferret, in vivo, other
Mustela putorius furo [7] = test: Average area under curve value dosed at 0.3 mg/kg, iv in ferrets.; conditions: ferret, in vivo
[8] = Bioavailability in ferret; conditions: in vivo
[9] = Average peak plasma drug concentration after iv dose of 0.3 mg/kg in ferrets.; conditions: ferret
[10] = Average peak plasma drug concentration after id dose of 10 mg/kg in ferrets(Plasma samples collected from portal blood).; conditions: ferret

| SMILES | IC50 (Renin [1]) [nM] | IC50 (Renin [2]) [nM] | logD [3] | logD [4] | also measured |
| --- | --- | --- | --- | --- | --- |
| CCCC[C@H](O[C@@H](Cc1ccccc1)C(=O)N1CCC(OCOC)CC1)C(=O)N[C@@H](CC1CCCCC1)[C@@H](O)C[C@H](NC(=O)OCCCN(C)C)C(C)C | 12 | 2.4 | 3.8 | 2.9 | – |
| CCCC[C@H](O[C@@H](Cc1ccccc1)C(=O)N1CCC(OCOC)CC1)C(=O)N[C@@H](CC1CCCCC1)[C@@H](O)C[C@H](NC(=O)NCCC)C(C)C | 16 | 2.4 | – | – | – |
| CCCC[C@H](N[C@@H](Cc1ccccc1)C(=O)N1CCC(OCOC)CC1)C(=O)N[C@@H](CC1CCCCC1)[C@@H](O)C[C@H](C(=O)NCCCN(C)C)C(C)C | 6.1 | 2.1 | 2.8 | 2.2 | – |
| CCCC[C@H](N[C@@H](Cc1ccccc1)C(=O)N1CCC(OCOC)CC1)C(=O)N[C@@H](CC1CCCCC1)[C@@H](O)C[C@H](C(=O)NCCCN1CCOCC1)C(C)C | – | – | 4.5 | 3.9 | Cmax ([5]; in vivo): 3490 ng/mL; Average AUC (Mustela putorius furo [6]): 7700 ng·h/mL; Average AUC (Mustela putorius furo [7]): 682 ng·h/mL; bioavailability [8]: 34%; Cmax ([9]; in vivo): 1310 ng/mL; Cmax ([10]; in vivo): 4350 ng/mL |
| CCCC[C@H](O[C@@H](Cc1ccccc1)C(=O)N1CCC(OCOC)CC1)C(=O)N[C@@H](CC1CCCCC1)[C@@H](O)C[C@H](N)C(C)C | – | 110 | – | – | – |
| CCCC[C@H](O[C@@H](Cc1ccccc1)C(=O)N1CCC(OCOC)CC1)C(=O)N[C@@H](CC1CCCCC1)[C@@H](O)C[C@H](C(=O)NCCC[N+](C)(C)[O-])C(C)C | 5 | – | – | – | – |
| CCCC[C@H](O[C@@H](Cc1ccccc1)C(=O)N1CCC(OCOC)CC1)C(=O)N[C@@H](CC1CCCCC1)[C@@H](O)C[C@H](C(=O)N(C)CCCN(C)C)C(C)C | 270 | 57 | 3.7 | 2.5 | – |
| CC(C)[C@H](C[C@H](O)[C@H](CC1CCCCC1)NC(=O)[C@H](Cc1c[nH]cn1)NC(=O)[C@H](Cc1ccccc1)NC(=O)OC(C)(C)C)NS(=O)(=O)C(C)C | – | 67 | – | – | – |
| CCCC[C@H](O[C@@H](Cc1ccccc1)C(=O)N1CCC(OCOC)CC1)C(=O)N[C@@H](CC1CCCCC1)[C@@H](O)C[C@H](NC(=O)OCCc1ccccn1)C(C)C | 40 | 0.9 | 3.4 | 2.7 | – |
| CC(C)[C@H](C[C@H](O)[C@H](CC1CCCCC1)NC(=O)[C@H](Cc1c[nH]cn1)NC(=O)[C@H](Cc1ccccc1)NC(=O)OC(C)(C)C)NS(C)(=O)=O | – | 28 | – | – | – |
| CCCC[C@H](O[C@@H](Cc1ccccc1)C(=O)N1CCC(OCOC)CC1)C(=O)N[C@@H](CC1CCCCC1)[C@@H](O)C[C@H](NC(=O)OCCC)C(C)C | 14 | 1.5 | – | – | – |
| CCCNC(=O)N[C@@H](C[C@H](O)[C@H](CC1CCCCC1)NC(=O)[C@H](Cc1c[nH]cn1)NC(=O)[C@H](Cc1ccccc1)NC(=O)OC(C)(C)C)C(C)C | 83 | 2.7 | – | – | – |
| CCCC[C@H](N[C@@H](Cc1ccccc1)C(=O)N1CCC(OCOC)CC1)C(=O)N[C@@H](CC1CCCCC1)[C@@H](O)C[C@H](C(=O)NCCCn1ccnc1)C(C)C | 7.6 | 2 | – | – | – |
| CCCC[C@H](N[C@@H](Cc1ccccc1)C(=O)N1CCC(OCOC)CC1)C(=O)N[C@@H](CC1CCCCC1)[C@@H](O)C[C@H](NC(=O)OCCN(C)C)C(C)C | 12 | 1.5 | 4.6 | 3.8 | Cmax ([5]; plasma (from arterial blood)): 2070 ng/mL; Average AUC (Mustela putorius furo [6]): 5050 ng·h/mL; Average AUC (Mustela putorius furo [7]): 245 ng·h/mL; bioavailability [8]: 62%; Cmax ([9]; plasma): 930 ng/mL; Cmax ([10]; plasma (from portal blood)): 5250 ng/mL |
| CCCC[C@H](O[C@@H](Cc1ccccc1)C(=O)N1CCC(OCOC)CC1)C(=O)N[C@@H](CC1CCCCC1)[C@@H](O)C[C@H](C(=O)N1CCCN(C)CC1)C(C)C | 79 | 17 | – | 3.7 | – |
| CCCC[C@H](O[C@@H](Cc1ccccc1)C(=O)N1CCC(OCOC)CC1)C(=O)N[C@@H](CC1CCCCC1)[C@@H](O)C[C@H](NC(=O)OCc1ccccc1)C(C)C | 83 | 2.2 | – | – | – |
| CCCCC(=O)N[C@@H](C[C@H](O)[C@H](CC1CCCCC1)NC(=O)[C@H](CCCC)O[C@@H](Cc1ccccc1)C(=O)N1CCC(OCOC)CC1)C(C)C | 53 | – | – | – | – |
| CCCC[C@H](O[C@@H](Cc1ccccc1)C(=O)N1CCC(OCOC)CC1)C(=O)N[C@@H](CC1CCCCC1)[C@@H](O)C[C@H](NC(=O)OCCC(C)C)C(C)C | 56 | 5 | – | – | – |
| CCCC[C@H](O[C@@H](Cc1ccccc1)C(=O)N1CCC(OCOC)CC1)C(=O)N[C@@H](CC1CCCCC1)[C@@H](O)C[C@H](C(=O)NCCN(C)C)C(C)C | 5.7 | 2.9 | 4.3 | 3.3 | – |

More lines, main results first:

| IC50 (Renin [1]) [nM] | IC50 (Renin [2]) [nM] | logD [3] | logD [4] | SMILES | also measured |
| --- | --- | --- | --- | --- | --- |
| 16 | 1.7 | – | – | CCCOC(=O)N[C@@H](C[C@H](O)[C@H](CC1CCCCC1)NC(=O)[C@H](Cc1cnc[nH]1)NC(=O)[C@H](Cc1ccccc1)NC(=O)OC(C)(C)C)C(C)C | – |
| 13 | 2.5 | – | – | CCCC[C@H](O[C@@H](Cc1ccccc1)C(=O)N1CCC(OCOC)CC1)C(=O)N[C@@H](CC1CCCCC1)[C@@H](O)C[C@H](NC(=O)OCCN1CCCC1)C(C)C | – |
| 3.5 | 1.3 | – | – | CCCC[C@H](O[C@@H](Cc1ccccc1)C(=O)N1CCC(OCOC)CC1)C(=O)N[C@@H](CC1CCCCC1)[C@@H](O)C[C@H](C(=O)NCCC[N+]1([O-])CCOCC1)C(C)C | – |
| – | 1.8 | > 4.5 | > 4.5 | CCCCNC(=O)[C@@H](C[C@H](O)[C@H](CC1CCCCC1)NC(=O)[C@H](CCCC)N[C@@H](Cc1ccccc1)C(=O)N1CCC(OCOC)CC1)C(C)C | Cmax ([5]; plasma (from arterial blood)): 1540 ng/mL; Average AUC (Mustela putorius furo [6]): 3530 ng·h/mL; Average AUC (Mustela putorius furo [7]): 673 ng·h/mL; bioavailability [8]: 16%; Cmax ([9]; plasma): 2230 ng/mL; Cmax ([10]; plasma (from portal blood)): 3220 ng/mL |
| 5.9 | – | 3.1 | 2.3 | CCCC[C@H](O[C@@H](Cc1ccccc1)C(=O)N1CCC(OCOC)CC1)C(=O)N[C@@H](CC1CCCCC1)[C@@H](O)C[C@H](C(=O)NCCCN(C)C)C(C)C | Cmax ([5]; plasma (from arterial blood)): 5050 ng/mL; Average AUC (Mustela putorius furo [6]): 9670 ng·h/mL; Average AUC (Mustela putorius furo [7]): 573 ng·h/mL; bioavailability [8]: 50%; Cmax ([9]; plasma): 2990 ng/mL; Cmax ([10]; plasma (from portal blood)): 4990 ng/mL |
| 9.5 | 1.8 | 4.3 | 3.9 | CCCC[C@H](N[C@@H](Cc1ccccc1)C(=O)N1CCC(OCOC)CC1)C(=O)N[C@@H](CC1CCCCC1)[C@@H](O)C[C@H](NC(=O)OCCN1CCOCC1)C(C)C | – |
| 5.1 | 1 | > 5 | > 5 | CCCC[C@H](O[C@@H](Cc1ccccc1)C(=O)N1CCC(OCOC)CC1)C(=O)N[C@@H](CC1CCCCC1)[C@@H](O)C[C@H](C(=O)NCCc1ccccn1)C(C)C | – |
| 17 | 1.3 | – | – | CC(C)[C@H](C[C@H](O)[C@H](CC1CCCCC1)NC(=O)[C@H](Cc1c[nH]cn1)NC(=O)[C@H](Cc1ccccc1)NC(=O)OC(C)(C)C)NC(=O)OCCc1ccccn1 | – |
| 290 | 30 | > 5 | 3.3 | CCCC[C@H](O[C@@H](Cc1ccccc1)C(=O)N1CCC(OCOC)CC1)C(=O)N[C@@H](CC1CCCCC1)[C@@H](O)C[C@H](C(=O)N(C)CCN(C)C)C(C)C | – |
| 61 | 4.3 | – | – | CCCC[C@H](O[C@@H](Cc1ccccc1)C(=O)N1CCC(OCOC)CC1)C(=O)N[C@@H](CC1CCCCC1)[C@@H](O)C[C@H](NS(C)(=O)=O)C(C)C | – |
| 200 | 6 | – | – | CCCCC(=O)N[C@@H](C[C@H](O)[C@H](CC1CCCCC1)NC(=O)[C@H](Cc1c[nH]cn1)NC(=O)[C@H](Cc1ccccc1)NC(=O)OC(C)(C)C)C(C)C | – |
| 12 | 2.3 | – | – | CC(C)[C@H](C[C@H](O)[C@H](CC1CCCCC1)NC(=O)[C@H](Cc1c[nH]cn1)NC(=O)[C@H](Cc1ccccc1)NC(=O)OC(C)(C)C)NC(=O)OCCN(C)C | – |
| 28 | 2.7 | – | – | CC(C)[C@H](C[C@H](O)[C@H](CC1CCCCC1)NC(=O)[C@H](Cc1c[nH]cn1)NC(=O)[C@H](Cc1ccccc1)NC(=O)OC(C)(C)C)NC(=O)OCCN1CCCC1 | – |
| – | 11 | – | – | CC(C)[C@H](C[C@H](O)[C@H](CC1CCCCC1)NC(=O)[C@H](Cc1c[nH]cn1)NC(=O)[C@H](Cc1ccccc1)NC(=O)OC(C)(C)C)NC(=O)OCc1ccccc1 | – |
| 17 | 2.8 | – | – | CC(C)[C@H](C[C@H](O)[C@H](CC1CCCCC1)NC(=O)[C@H](Cc1cnc[nH]1)NC(=O)[C@H](Cc1ccccc1)NC(=O)OC(C)(C)C)NC(=O)OCCCN(C)C | – |
| 4.7 | 1.3 | – | – | CC(C)[C@H](C[C@H](O)[C@H](CC1CCCCC1)NC(=O)[C@H](Cc1cnc[nH]1)NC(=O)[C@H](Cc1ccccc1)NC(=O)OC(C)(C)C)NC(=O)OCCN1CCOCC1 | – |
| 8.3 | – | > 4 | 3.6 | CCCC[C@H](O[C@@H](Cc1ccccc1)C(=O)N1CCC(OCOC)CC1)C(=O)N[C@@H](CC1CCCCC1)[C@@H](O)C[C@H](NC(=O)OCCN(C)C)C(C)C | Cmax ([5]; plasma (from arterial blood)): 1190 ng/mL; Average AUC (Mustela putorius furo [6]): 2780 ng·h/mL; Average AUC (Mustela putorius furo [7]): 232 ng·h/mL; bioavailability [8]: 36%; Cmax ([9]; plasma): 1010 ng/mL; Cmax ([10]; plasma (from portal blood)): 1540 ng/mL |
